Source: the Kinase Knowledgebase extract (Sharma et al. 2016)
pKi: −log10 of the molar value.

These compounds were tested against PIK3CG (human) (UniProt P48736) (assay: Inhibition of PIK3CG Kinase Activity).
Sequence of PIK3CG (human) (P48736 whole entry, looked up): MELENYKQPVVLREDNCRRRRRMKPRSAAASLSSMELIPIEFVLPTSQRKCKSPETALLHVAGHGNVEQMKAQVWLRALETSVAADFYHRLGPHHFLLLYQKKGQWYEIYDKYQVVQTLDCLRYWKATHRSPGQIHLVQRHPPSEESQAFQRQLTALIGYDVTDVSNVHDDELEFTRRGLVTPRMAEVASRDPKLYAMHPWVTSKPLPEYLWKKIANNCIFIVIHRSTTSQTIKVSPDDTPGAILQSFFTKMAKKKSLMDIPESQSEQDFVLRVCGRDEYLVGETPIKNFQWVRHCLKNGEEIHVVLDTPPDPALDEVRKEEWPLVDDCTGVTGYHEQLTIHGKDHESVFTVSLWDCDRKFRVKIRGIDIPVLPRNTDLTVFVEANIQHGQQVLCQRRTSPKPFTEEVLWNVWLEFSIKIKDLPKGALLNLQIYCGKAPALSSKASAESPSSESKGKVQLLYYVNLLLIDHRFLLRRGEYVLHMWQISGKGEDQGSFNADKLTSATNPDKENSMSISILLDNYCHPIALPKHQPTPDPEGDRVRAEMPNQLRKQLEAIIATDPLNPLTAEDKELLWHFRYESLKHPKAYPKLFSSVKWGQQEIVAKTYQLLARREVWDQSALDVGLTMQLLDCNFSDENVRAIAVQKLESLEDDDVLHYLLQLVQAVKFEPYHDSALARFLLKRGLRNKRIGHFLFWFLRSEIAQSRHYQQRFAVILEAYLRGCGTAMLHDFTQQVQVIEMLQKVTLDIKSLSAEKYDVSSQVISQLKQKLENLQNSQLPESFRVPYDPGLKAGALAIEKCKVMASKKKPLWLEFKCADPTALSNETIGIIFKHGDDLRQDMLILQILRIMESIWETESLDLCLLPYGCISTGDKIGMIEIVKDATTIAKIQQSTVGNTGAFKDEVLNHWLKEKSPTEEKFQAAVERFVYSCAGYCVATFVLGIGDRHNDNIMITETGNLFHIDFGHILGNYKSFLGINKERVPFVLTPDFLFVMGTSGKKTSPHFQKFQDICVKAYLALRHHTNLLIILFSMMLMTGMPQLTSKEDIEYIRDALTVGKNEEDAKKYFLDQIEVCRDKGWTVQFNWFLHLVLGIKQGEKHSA

| pKi | SMILES |
| --- | --- |
| > 7.00 | COc1ncc(-c2cc(C)c3c(n2)CN(c2cnn(C(C)(C)C#N)c2)C3=O)cc1OCC(F)(F)F |
| > 7.00 | CCc1n[nH]c(N2Cc3cc(-c4cnc(OC)c(OC)c4)ccc3C2=O)n1 |
| > 7.00 | Cc1cc(-c2cncc(Cl)c2)nc2c1C(=O)N(c1cnn(CC#N)c1)C2 |
| > 7.00 | COc1cc(-c2ccc3c(n2)CN(c2cnn(CCC#N)c2)C3=O)cnc1OC |
| > 7.00 | COc1cc(-c2ccc3c(n2)C2(CC2)N(c2cnn(CC(F)(F)F)c2)C3=O)cnc1OC |
| > 7.00 | COc1cc(-c2ccc3c(n2)CN(c2cnn([C@H](CO)C(F)(F)F)c2)C3=O)cnc1OC |
| > 7.00 | COc1cccc(-c2cc(C)c3c(n2)CN(c2cnn(CC(F)(F)F)c2)C3=O)n1 |
| > 7.00 | COc1ncc(-c2cc(C)c3c(n2)CN(c2ccn(C4COC4)n2)C3=O)cc1OCC(F)(F)F |
| > 7.00 | CCOc1cc(-c2cc(C)c3c(n2)CN(c2cnn(CC#N)c2)C3=O)cnc1OCC |
| > 7.00 | C#CCNC(=O)c1cncc(-c2cc(C)c3c(n2)C(C)N(c2cnn(CC(F)(F)F)c2)C3=O)c1 (stereo not given) |
| 6.31 to 7.00 | CCc1cc(N2Cc3nc(-c4cncc(OC(F)F)c4)ccc3C2=O)nn1C[C@H](C)O |
| > 7.00 | COc1cc(-c2cc(C)c3c(n2)CN(c2ccc(OCCCC(F)(F)F)nc2)C3=O)cnc1OC |
| 6.31 to 7.00 | COc1cc(-c2ccc3c(n2)CN(c2cnn(CCN4CCCCC4)c2)C3=O)cnc1OC |
| > 7.00 | COc1cncc(-c2cc(C)c3c(n2)C(C)N(c2ccn([C@@H]4CCOC4)n2)C3=O)c1 (stereo not given in full) |
| > 7.00 | CCc1ncc(-c2cc(C)c3c(n2)C(C)(C)N(c2cnn(CC(F)(F)F)c2)C3=O)cc1OC |
| 6.31 to 7.00 | Cc1cc(-c2cncc(C(=O)N3CCC[C@@H]3C)c2)nc2c1C(=O)N(c1cnn(CC(F)(F)F)c1)C2(C)C |
| > 7.00 | Cc1cc(-c2cncc(OC(F)F)c2)nc2c1C(=O)N(c1cnn(C(C)(C)C#N)c1)C2 |
| > 7.00 | COc1cc(-c2ccc3c(n2)CN(c2cnn(CC4CC4)c2)C3=O)cnc1OC |
| > 7.00 | COc1cncc(-c2cc(C)c3c(n2)C2(CC(O)C2)N(c2cnn(CC(F)(F)F)c2)C3=O)c1 (stereo not given) |
| > 7.00 | COc1cc(OC)c(-c2cc(C)c3c(n2)CN(c2cnn(CC(F)(F)F)c2)C3=O)cn1 |
| > 7.00 | COc1ncc(-c2cc(C)c3c(n2)CN(c2cnn(CC(F)(F)F)c2)C3=O)cc1OCC1CCCCO1 (stereo not given) |
| > 7.00 | COc1ncc(-c2cc(C)c3c(n2)C(C)N(c2cnn(CC(F)F)c2)C3=O)cc1C(=O)NCC(F)F (stereo not given) |
| 6.31 to 7.00 | C=CC1(O)c2nc(-c3cncc(OC)c3)cc(C)c2C(=O)N1c1cnn(CC(F)(F)F)c1 (stereo not given) |
| > 7.00 | Cc1cc(-c2cncc(OCC(F)(F)F)c2)cc2c1C(=O)N(c1cnn(CC(F)(F)F)c1)C2 |

| pKi | SMILES |
| --- | --- |
| 6.31 to 7.00 | COc1cc(-c2ccc3c(n2)CN(c2ccc(=O)n(C)c2)C3=O)cnc1OC |
| > 7.00 | COc1cc(-c2ccc3c(n2)C(C)N(c2cn(CC(F)(F)F)cn2)C3=O)cnc1OC (stereo not given) |
| > 7.00 | COc1cc(-c2cc(C)c3c(n2)C(C)N(c2cnn(C[C@@H](C)O)c2)C3=O)cnc1OC (stereo not given in full) |
| > 7.00 | COc1cncc(-c2cc(C)c3c(n2)C(C)N(c2cc[nH]n2)C3=O)c1 (stereo not given) |
| > 7.00 | CCOc1ncc(-c2cc(C)c3c(n2)[C@]2(CCCO2)N(c2cnn(CC(F)(F)F)c2)C3=O)cc1OC |
| > 7.00 | COc1cc(-c2cc(C)c3c(n2)CN(c2cncc(S(C)(=O)=O)c2)C3=O)cnc1OC |
| > 7.00 | COc1cc(-c2cc(C)c3c(n2)CN(c2nc(C)cs2)C3=O)cnc1OC |
| > 7.00 | COc1ccc(-c2cc(C)c3c(n2)C(C)(C)N(c2cnn(CC(F)F)c2)C3=O)nc1OC |
| > 7.00 | COc1cc(-c2cc(C)c3c(n2)C(C)(C)N(c2cnn(CC(F)F)c2)C3=O)cnc1C |
| > 7.00 | COc1cc(-c2ccc3c(c2)CN(c2cnn(CCC#N)c2)C3=O)cnc1OC |
| > 7.00 | CCn1ccc(N2C(=O)c3c(C)cc(-c4cncc(OC(F)F)c4)nc3[C@@H]2C)n1 |
| > 7.00 | COc1cc(-c2cc(C)c3c(n2)CN(c2cscn2)C3=O)cnc1OC |
| > 7.00 | Cc1cc(-c2cncc(OCC(F)(F)F)c2)nc2c1C(=O)N(c1cnn(CC(F)(F)F)c1)C2 |
| 6.31 to 7.00 | COc1cc(-c2ccc3c(n2)CN(c2ccc(N4CCC(CO)C4)nc2)C3=O)cnc1OC (stereo not given) |
| > 7.00 | Cc1cc(-c2cnc(C)c(OCC(F)F)c2)nc2c1C(=O)N(c1cnn(CC(F)F)c1)C2(C)C |
| > 7.00 | COc1cncc(-c2cc(C)c3c(n2)C(C)N(c2ccn(CC(C)(C)O)n2)C3=O)c1 (stereo not given) |
| > 7.00 | CCNC(=O)c1cc(-c2cc(C)c3c(n2)C(C)(C)N(c2cnn(CC(F)(F)F)c2)C3=O)cnc1C |
| > 7.00 | COc1ncc(-c2cc(C)c3c(n2)CN(c2cn[nH]c2)C3=O)cc1OCC1CC1 |
| 6.31 to 7.00 | COc1cc(-c2ccc3c(n2)CN(c2cnn(CC4CCN(C(=O)OC(C)(C)C)CC4)c2)C3=O)cnc1OC |
| > 7.00 | CCOc1cc(-c2cc(C)c3c(n2)C(C)(C)N(c2cnn(CC(F)F)c2)C3=O)cnc1C |
| > 7.00 | CCO[C@]1(C)c2nc(-c3cnc(OC)c(OC)c3)cc(C)c2C(=O)N1c1cnn(CC(F)(F)F)c1 |
| > 7.00 | Cc1cc(-c2cncc(OC(F)F)c2)nc2c1C(=O)N(c1cncc(CC#N)c1)C2C (stereo not given) |
| 6.31 to 7.00 | CCC(=O)Nc1cncc(-c2cc(C)c3c(n2)C(C)(C)N(c2cnn(CC(F)(F)F)c2)C3=O)c1 |
| > 7.00 | CCOc1cncc(-c2cc(C)c3c(n2)C(C)(OC)N(c2cnn(CC(F)(F)F)c2)C3=O)c1 (stereo not given) |

| pKi | SMILES |
| --- | --- |
| > 7.00 | COc1ccc(-c2cc(C)c3c(n2)CN(c2cnn(CC(F)(F)F)c2)C3=O)s1 |
| > 7.00 | COc1cc(-c2ccc3c(n2)C(C)N(c2ccnc(CC#N)c2)C3=O)cnc1OC (stereo not given) |
| > 7.00 | COc1cc(-c2ccc3c(n2)CN(c2ccn(CC(F)(F)F)n2)C3=O)cnc1OC |
| > 7.00 | Cc1cc(-c2cnc(C)c(C(=O)N(C)C)c2)nc2c1C(=O)N(c1cnn(CC(F)(F)F)c1)C2(C)C |
| > 7.00 | COc1cncc(-c2cc(C)c3c(n2)C(C)(C)N(c2cnn([C@@H]4CCOC4)c2)C3=O)c1 |
| > 7.00 | CCn1ccc(N2C(=O)c3ccc(-c4cnc(OC)c(OC)c4)nc3[C@H]2C)n1 |
| > 7.00 | COc1cc(-c2cc(C)c3c(n2)C(OCC2CC2)N(c2cnn(CC(F)(F)F)c2)C3=O)cnc1OC (stereo not given) |
| > 7.00 | Cc1cc(-c2cncc(OCC(F)(F)F)c2)nc2c1C(=O)N(c1cnn(CC(F)(F)F)c1)C2C (stereo not given) |
| 6.31 to 7.00 | CCn1cc(N2Cc3cc(-c4cnc5ccccc5c4)ccc3C2=O)cn1 |
| > 7.00 | COc1ncc(-c2cc(C)c3c(n2)C(C)(C)N(c2cnn(CC(F)(F)F)c2)C3=O)cc1C(=O)NCC#N |
| > 7.00 | CCn1cc(N2Cc3nc(-c4cnc(OC)c(OCC(F)F)c4)cc(C)c3C2=O)cn1 |
| > 7.00 | COc1cc(-c2cc(C)c3c(n2)CN(c2ccc(C(C)C)nc2)C3=O)cnc1OC |
| > 7.00 | COc1cc(-c2cc(C)c3c(n2)CN(c2cnn(CC#N)c2)C3=O)cnc1OC |
| > 7.00 | Cc1cc(-c2cncc(OCC(F)(F)F)c2)nc2c1C(=O)N(c1cnn(CC(F)F)c1)C2(C)C |
| > 7.00 | CCOc1cc(-c2cc(C)c3c(n2)CN(c2ccon2)C3=O)cnc1OCC |
| > 7.00 | COc1ncc(-c2cc(C)c3c(c2)CN(c2cnn(CC(F)(F)F)c2)C3=O)nc1OC |
| > 7.00 | COc1cc(-c2cc(C)c3c(n2)CN(c2cncc(C#N)c2)C3=O)cnc1OC |
| > 7.00 | COc1ncc(-c2ccc3c(n2)C(C)N(c2cnn(CC(F)(F)F)c2)C3=O)cc1OC(F)F (stereo not given) |
| > 7.00 | COc1cc(-c2ccc3c(n2)[C@@H](C)N(c2cn(CC(F)(F)F)cn2)C3=O)cnc1OC |
| > 7.00 | Cc1cc(-c2cnc(C)c(C(=O)O)c2)nc2c1C(=O)N(c1cnn(CC(F)(F)F)c1)C2(C)C |
| 6.31 to 7.00 | COc1cc(-c2ccc3c(n2)CN(c2ccc(N4CCC(CCO)C4)nc2)C3=O)cnc1OC (stereo not given) |
| > 7.00 | COc1cncc(-c2cc(C)c3c(n2)C2(CCOC2)N(c2cnn(CC(F)(F)F)c2)C3=O)c1 (stereo not given) |
| > 7.00 | COc1cncc(-c2cc(C)c3c(n2)C2(CN(C(C)=O)C2)N(c2cnn(CC(F)(F)F)c2)C3=O)c1 |
| > 7.00 | CCCOc1cc(-c2cc(C)c3c(n2)CN(c2ccn(C4COC4)n2)C3=O)cnc1OC |

| pKi | SMILES |
| --- | --- |
| > 7.00 | CCC1(OC)c2nc(-c3cnc(OC)c(OC)c3)cc(C)c2C(=O)N1c1cnn(CC(F)(F)F)c1 (stereo not given) |
| > 7.00 | COc1ccc(-c2cc(C)c3c(n2)CN(c2cnn(CC#N)c2)C3=O)cc1OC |
| > 7.00 | CCn1ccc(N2C(=O)c3ccc(-c4cnc(OC)c(OC)c4)nc3[C@@H]2C)n1 |
| > 7.00 | COc1cc(-c2ccc3c(n2)CN(c2cnn([C@H](C)CO)c2)C3=O)cnc1OC |
| > 7.00 | COc1cc(-c2cc(C)c3c(n2)C2(CC2)N(c2cnn(CC(F)(F)F)c2)C3=O)cnc1OC(C)C |
| > 7.00 | COc1ncc(-c2cc(C)c3c(n2)C(C)N(c2cnn(CC(F)(F)F)c2)C3=O)cc1OC(F)F (stereo not given) |
| 6.31 to 7.00 | COc1cc(-c2ccc3c(c2)CN(c2cnn(CCO)c2)C3=O)cnc1OC |
| 6.31 to 7.00 | CC#CCn1cc(N2Cc3cc(-c4cnc(OC)c(OC)c4)ccc3C2=O)cn1 |
| > 7.00 | COc1cc(-c2cc(C)c3c(n2)[C@@H](OC)N(c2cnn(CC(F)(F)F)c2)C3=O)cnc1OC |
| 6.31 to 7.00 | COc1cc(-c2ccc3c(n2)C(C)N(c2ccc(N4CCC(O)C4)nc2)C3=O)cnc1OC (stereo not given) |
| > 7.00 | COc1cc(-c2ccc3c(n2)C(C)N(c2cn[nH]c2)C3=O)cnc1OC (stereo not given) |
| > 7.00 | COCCOc1ncc(-c2cc(C)c3c(n2)CN(c2cnn(CC#N)c2)C3=O)cc1OC |
| > 7.00 | CCOc1ncc(-c2cc(C)c3c(c2)CN(c2cnn(CC(F)(F)F)c2)C3=O)cc1OC |
| > 7.00 | COc1cc(-c2ccc3c(n2)C(C)N(c2csc(SC)n2)C3=O)cnc1OC (stereo not given) |
| > 7.00 | COc1cncc(-c2cc(C)c3c(n2)[C@@H](C)N(c2cn[nH]c2)C3=O)c1 |
| > 7.00 | COc1cc(-c2ccc3c(n2)CN(c2cnn(C(F)(F)C#N)c2)C3=O)cnc1OC |
| > 7.00 | Cc1cc(-c2cncc(OC(F)F)c2)nc2c1C(=O)N(c1cnn(C)c1)C2 |
| > 7.00 | COc1cc(-c2ccc3c(n2)CN(c2cccs2)C3=O)cnc1OC |
| 6.31 to 7.00 | COc1ncc(-c2ccc3c(n2)CN(c2cnn(CC(F)(F)F)c2)C3=O)cc1CO |
| > 7.00 | COc1cc(-c2cc(C)c3c(n2)CN(c2csc(CO)c2)C3=O)cnc1OC |
| > 7.00 | COc1cc(-c2cc(C)c3c(n2)CN(c2cnn(CC(F)(F)F)c2)C3=O)cc(OC)n1 |
| > 7.00 | COc1cncc(-c2cc(C)c3c(n2)C(C)(C)N(c2cnn(CC(F)(F)F)c2)C3=O)c1 |
| 6.31 to 7.00 | COc1cncc(-c2cc(C)c3c(n2)C(C)(C)N(c2ccn([C@@H]4CCOC4)n2)C3=O)c1 |
